Measurements published in patent US7560480B2, “Alkyl-containing 5-acylindolinones, the preparation thereof and their use as medicaments” (Boehringer Ingelheim International GmbH, priority 2004, dated 2009).

Columns and labels:
mice = test: Tolerability after oral administration (animals' behaviour); format: in vivo; details: oral administration of 10 mg/kg
db/db mice = test: Oral glucose tolerance test; format: in vivo; details: fasted db/db mice, 2 g/kg glucose orally 30 minutes after the substance
Description: Oral Glucose Tolerance Test
Fasted db/db mice 7 to 9 weeks old (Janvier, France) are weighed and blood is taken from the tip of the tail. This blood is used for the first measurement of glucose on the basis of which the animals are randomised and divided into groups. The test substance to be tested may be given either orally or i.p. as a suspension in 0.5% Natrosol. 30 minutes after the administration of the substance the animals are given orally 2 g/kg glucose in a volume of 0.1 ml/100 g body weight dissolved in NaCl solution. Subsequently, the glucose values are determined from the tail blood using a glucometer (Ultra OneTouch, Lifescan) at specific time intervals [30, 60, 120 and 180 minutes after oral administration of the glucose].

CC(=O)c1ccc2c(c1)/C(=C(/NCCC(=O)N1CCN(C)CC1)c1ccccc1)C(=O)N2 [Example 1.009]
tolerability: changes in the animals' behaviour (mice): no changes were observed in the animals' behaviour
activity in the oral glucose tolerance test (db/db mice): significant activity
